These are literature values, as cited in US20140295417A1, “IDENTIFICATION OF ANTIBIOTIC RESISTANCE” (priority 2011, published 2014).

Where two headings read alike, the source gives them in different places.

The series concerns 23S rRNA. Conditions: cited from earlier work.

Turning to `C[C@H]1O[C@H](O[C@H]2CC[C@H](n3ccc(NC(=O)c4ccc(NC(=O)[C@@](C)(N)CO)cc4)nc3=O)O[C@@H]2C)[C@H](O)[C@@H](O)[C@@H]1N(C)C` [Amicetin], the Phenotype result reads like this: (23S rRNA position 2438 "U to A", Halobacterium halobium) “Amicetin resistance”; (23S rRNA position 2438 "U to C", Halobacterium halobium) “Amicetin resistance”.

Regarding `COc1ccc(C[C@H]2NC[C@H](O)[C@H]2OC(C)=O)cc1` [Animosycin], the Phenotype entry is, setting by setting: (23S rRNA position 2452 "C to U", Halobacterium (Hummel and Böck 1987)) “Animosycin resistance”; (23S rRNA position 2452 "C to U", Tetrahymena thermophilia) “Animosycin resistance”.

As to `COc1ccc(C[C@H]2NC[C@H](O)[C@H]2OC(C)=O)cc1` [Anisomycin], the Phenotype entry (23S rRNA position 2447 "G to C", Halobacterium halobium) was “resistance” and the Phenotype entry (23S rRNA position 2453 "A to C", Halobacterium halobium) was “Anisomycin resistance”.

Take `O=C(N[C@H](CO)[C@H](O)c1ccc([N+](=O)[O-])cc1)C(Cl)Cl` [Chloramphenicol]: the Phenotype result by setting is: (23S position 2061 G to A, Rat mitochondria, Vester and Garrett 1988) “resistance”; (23S position 2062 A to C, Halobacterium halobium, Mankin and Garrett 1991) “resistance”; (23S rRNA position 2447 "G to A", Yeast mitochondria) “resistance”; (23S rRNA position 2451 "A to U", Mouse mitochondria) “resistance”; (23S rRNA position 2452 "C to A", Human mitochondria) “resistance”; (23S rRNA position 2452 "C to U", Halobacterium halobium (Mankin and Garrett 1991)) “resistance”. Moreover, the Phenotype result is “resistance” (23S rRNA position 2452 "C to U", Mouse mitochondria); “resistance” (23S rRNA position 2503 "A to C", Yeast mitochondria); “resistance” (23S rRNA position 2504 "U to C", Human mitochondria); “resistance” (23S rRNA position 2504 "U to C", Mouse mitochondria).

As to `CC[C@H]1OC(=O)[C@H](C)[C@@H](O[C@H]2C[C@@](C)(OC)[C@@H](O)[C@H](C)O2)[C@H](C)[C@@H](O[C@@H]2O[C@H](C)C[C@H](N(C)C)[C@H]2O)[C@](C)(OC)C[C@@H](C)C(=O)[C@H](C)[C@@H](O)[C@]1(C)O` [Clarithomycin], the Phenotype entry (23S position 2059 A to G, Helecobacter pylori, Versalovic 1996) is given as “resistance”.

On to `CC[C@H]1OC(=O)[C@H](C)[C@@H](O[C@H]2C[C@@](C)(OC)[C@@H](O)[C@H](C)O2)[C@H](C)[C@@H](O[C@@H]2O[C@H](C)C[C@H](N(C)C)[C@H]2O)[C@](C)(OC)C[C@@H](C)C(=O)[C@H](C)[C@@H](O)[C@]1(C)O` [Clarithromycin], for which the Phenotype entry (23S position 2058 A to G, Helecobacter pylori, Versalovic 1996) is listed as “resistance”.

For `CC[C@H]1OC(=O)[C@H](C)[C@@H](O[C@H]2C[C@@](C)(OC)[C@@H](O)[C@H](C)O2)[C@H](C)[C@@H](O[C@@H]2O[C@H](C)C[C@H](N(C)C)[C@H]2O)[C@](C)(O)C[C@@H](C)C(=O)[C@H](C)[C@@H](O)[C@]1(C)O` [Ery], the Phenotype result runs as follows: (23S position 2058 A to U, double mutation (A2058U/G2032A), E. coli, Douthwaite 1992) “hs”; (23S rRNA 2032 G to A, double mutation (G2032A/A2058U), E. coli) “hs”; (23S rRNA 2057 G to A, double mutation (G2057A/C2661U), E. coli) “Slightly Eryr;”; (23S rRNA position 2611, "C to G", Chlamydomonas reinhardtii (Harris et al. 1989)) “Eryr”; (23S rRNA position 2611, "C to U", double mutation (C2611U/G2057A), E. coli (Vester et al. 1995)) “Slightly Eryr; reduced”; (23S rRNA position 2611, "C to U", Chlamydomonas reinhardtii (Harris et al. 1989)) “Eryr”.

As for `CC[C@H]1OC(=O)[C@H](C)[C@@H](O[C@H]2C[C@@](C)(OC)[C@@H](O)[C@H](C)O2)[C@H](C)[C@@H](O[C@@H]2O[C@H](C)C[C@H](N(C)C)[C@H]2O)[C@](C)(O)C[C@@H](C)C(=O)[C@H](C)[C@@H](O)[C@]1(C)O` [Erythromycin], the Phenotype result is given as “resistance” (23S position 2058 A to G, Yeast mitochondria, Sor and Fukuhara 1982); “Erythromycin resistant. a Double” (23S rRNA 1207 C to U, double mutant (C1207U/C1243U), E. coli); “Erythromycin resistant. a Double” (23S rRNA 1208 C to U, double mutant (C1208U/C1243U), E. coli); “Erythromycin sensitive. a Double” (23S rRNA 1211 C to U, double mutant (C1211U/C1208U), E. coli); “Erythromycin resistant. a Double” (23S rRNA 1220 G to A, double mutant (G1220A/G1239A), E. coli); “Erythromycin resistant. a Double” (23S rRNA 1221 C to U, double mutant (C1221U/C1229U), E. coli). Moreover, the Phenotype result (23S rRNA 1221 C to U, double mutant (C1221U/C1233U), E. coli) is given as “Erythromycin resistant. a Double”; the Phenotype entry (23S rRNA 1230, double deletion (1230/1231), E. coli) was “Erythromycin sensitive. a Double”; the Phenotype entry (23S rRNA 1231, double deletion (1231/1230), E. coli) is listed as “Erythromycin sensitive. a Double”; the Phenotype entry (23S rRNA 1232 G to A, double mutant (G1232A/G1238A), E. coli) is “Erythromycin sensitive. a Double”; the Phenotype entry (23S rRNA 1233 C to U, E. coli) is “Erythromycin sensitive. a”; the Phenotype entry (23S rRNA 1234 U to C, E. coli) is “Erythromycin sensitive. a”. In addition, the Phenotype result was “Erythromycin sensitive. a Double” (23S rRNA 1234 del1234/del1235, double mutant (U1234C/del1235), E. coli); “Erythromycin resistant. a Double” (23S rRNA 1243 C to U, double mutant (C1243U/C1207), E. coli); “Erythromycin resistant. a Double” (23S rRNA 1243 C to U, double mutant (C1243U/C1208U), E. coli); “Erythromycin resistant. a Double” (23S rRNA 1243 C to U, double mutant (C1243U/C1221U), E. coli).

Regarding `CCC[C@@H]1C[C@@H](C(=O)N[C@@H]([C@H]2O[C@H](SC)[C@H](O)[C@@H](O)[C@H]2O)[C@@H](C)O)N(C)C1` [Lincomycin], the Phenotype entry runs as follows: (23S position 2058 A to G, Chlamydomonas reinhardtii, Harris 1989) “resistance”; (23S position 2058 A to G, Solanum nigrum, Kavanagh 1994) “resistance”; (23S position 2058 A to G, Tobacco chloroplasts, Cseplö 1988) “resistance”; (23S position 2059 A to G, Tobacco chloroplasts, Cseplö 1988) “resistance”; (23S rRNA 2032 G to A, Tobbaco chloroplasts) “resistance”.

As to `CSC[S@+]([O-])C[C@H](CO)NC(=O)/C=C/c1c(C)[nH]c(=O)[nH]c1=O` [Sparsomycin], the Phenotype entry (23S rRNA position 2499 "C to U", Halobacterium halobium) is on record as “resistance”.

`CC[C@H]1OC(=O)[C@H](C)[C@@H](O[C@H]2C[C@@](C)(OC)[C@@H](O)[C@H](C)O2)[C@H](C)[C@@H](O[C@@H]2O[C@H](C)C[C@H](N(C)C)[C@H]2O)[C@](C)(O)C[C@@H](C)C(=O)[C@H](C)[C@@H](O)[C@]1(C)O` [erythromycin]: the “Phenotype: growth rate” value reads like this: (23S rRNA 1056 G to A, E. coli, with 2058G and erythromycin) “erythromycin) Reduced”; (23S rRNA 1064 C to U, E. coli, with 2058G and erythromycin) “erythromycin) Reduced”; (23S rRNA 1262 A to C, double mutant (A1262C/U2017G), E. coli, with erythromycin) “With erythromycin; reduced”; (23S rRNA 1262 A to U, double mutant (A1262U/U2017G), E. coli, with erythromycin) “With erythromycin; reduced”; (23S rRNA 1262 A to U, E. coli, with erythromycin) “With erythromycin; reduced”; (23S rRNA 2017 U to A, E. coli) “Reduced growth”. Also, the “Phenotype: growth rate” value by setting is: (23S rRNA 2017 U to C, double mutation (U2017C/A1262G), E. coli) “Reduced growth”; (23S rRNA 2017 U to C, E. coli) “Reduced growth”; (23S rRNA 2017 U to G, double mutation (U2017G/A1262C), E. coli) “Reduced growth”; (23S rRNA 2017 U to G, double mutation (U2017G/A1262U), E. coli) “Reduced growth”. The Phenotype is given as 2058G) Lethal when (23S rRNA 1068 G to A, E. coli, with 2058G, expressed from rrnB or pL promotor in presence of erythromycin); “lethal when expressed from rrnB” (23S rRNA 1137 G to A, double mutant (G1137A/G1138C), E. coli, with 2058G and erythromycin, rrnB promoter); “lethal when expressed from rrnB” (23S rRNA 1137 G to A, E. coli, with 2058G and erythromycin, expressed from rrnB promoter); “lethal when expressed from rrnB” (23S rRNA 1138 G to C, double mutant (G1138C/G1137A), E. coli, with 2058G and erythromycin, rrnB promoter); “lethal when expressed from rrnB” (23S rRNA 1138 G to C, E. coli, with 2058G and erythromycin, rrnB promoter); “With erythromycin; lethal” (23S rRNA 1262 A to C, E. coli, with erythromycin). Also, the Phenotype entry (23S rRNA 1262 A to G, E. coli, with erythromycin) is “With erythromycin; lethal”.
